Source: patent US10905691B2, “Use of triazolo(4,5-d)pyrimidine derivatives for prevention and treatment of bacterial infection” (Universite de Liege, priority 2016, dated 2021)
Converted amounts (≈) assume the structure as drawn.

How the values were obtained:
S. aureus ATCC 6538 = test: MBC and MDK99.9 determination (CFU counting); assay type: cell-based, Staphylococcus aureus
Method: (§1) Further experiments were conducted using different strains of S. aureus, as clinically relevant Gram-positive bacterial strains: ATCC 25904, ATCC 6538, methilcillin-resistant S. aureus (MRSA) ATCC BAA-1556, Glycopeptide intermediate-resistant (GISA) S. aureus Mu-50 (ATCC 700695) in order to determine the Minimal Inhibitory Concentration (MIC) which is the minimal concentration required to prevent bacterial growth; the Minimal Bactericidal Concentration (MBC) which determines the lowest concentration at which an antimicrobial agent kill a particular microorganism and a Minimum Duration for killing 99.9% bacteria (MDK99.9) which is a tolerance metric according to the EUCAST.
MBC and MDK99.9 determination: A single colony selected from the different strains of S. aureus is resuspended and cultured in the appropriate medium (TSB, or BHI) overnight (O/N) in aerobic conditions (37° C. with 220 rpm shaking), next day a 1:100 inoculum in the appropriate medium was incubated in aerobic conditions for 2 h. The culture is then challenged with triafluocyl at MIC concentration or higher concentrations. Bacterial growth was measured after different time intervals by counting the colony-forming units after plating appropriate culture dilutions on BHI agar plates. […] And the real time needed is defined as the MDK99.9. […]

S. epidermidis = test: Time-kill study in logarithmic phase; assay type: cell-based, Staphylococcus epidermidis
Method: To evaluate Triafluocyl antibacterial effect we have tested S. epidermidis liquid growth in the presence of different Triafluocyl concentrations in logarithmic phase. […] A 1:100 inoculum in 50 ml TSB of an O/N culture of S. epidermidis was cultured for 3 hr up to its logarithmic phase (OD600=0.26 and ≈3×10^8 CFU/ml). Bacteria were split in several tubes containing different concentrations of DMSO as vehicle alone or in combination with Triafluocyl in TSB and grown for 100 min at 37° C. with 220 rpm shaking, the OD600 was measured every 20 min.

[1] = test system: E. faecalis (ATCC 29212) biofilm; test: Biofilm formation on polystyrene (crystal violet); assay type: cell-based, Enterococcus faecalis; conditions: 20 hours
Method: E. faecalis (ATCC 29212) was grown overnight in BHI medium, before being diluted 100 fold in fresh TSB, and incubated aerobically at 37° C. until bacteria culture reached an OD600 of 0.6 (corresponding to approximately 2-5×10^8 CFU/ml). Bacteria cultures were then diluted to 1×10^4 CFU/ml in fresh TSB. 800 μl aliquots of diluted bacteria suspensions were distributed in each well of a 24-well plate. Bacteria were allowed to adhere for 4 hours under static conditions at 37° C. After removing media, wells were rinsed 2 times with PBS to eliminate planktonic bacteria and re-filled with TSB supplemented with 0.5% glucose
Triafluocyl or DMSO as vehicle was then added at desired concentration and plates were incubated at 37° C. for 20 hours. After incubation, wells were washed and stained with 0.5% (w/v) crystal violet for 30 minutes, washed again and the dye was solubilized by adding 20% acetic acid (v/v in water) before reading absorbance at 595 nm.
E. faecalis biofilms were formed on polystyrene surface in the presence of increasing concentrations of Triafluocyl or DMSO as vehicle. In FIG. 2, Biofilm mass is presented as percentage of values obtained in the presence of DMSO (*P<0.05; **P<0.01; ***P<0.001, Triafluocyl versus DMSO, n=4).

[2] = test system: S. agalactiae (ATCC 12386); test: MIC determination (EUCAST, Mueller-Hinton broth); assay type: cell-based; conditions: Streptococcus agalactiae, ATCC12386
Method: as §1, with “using” for “using different strains of”, “agalactiae (ATCC 12386),” for “aureus,”, “strains” for “strains: ATCC 25904, ATCC 6538, methilcillin-resistant S. aureus (MRSA) ATCC BAA-1556, Glycopeptide intermediate-resistant (GISA) S. aureus Mu-50 (ATCC 700695)”
MIC determination: A single colony selected from the different strains of S. agalactiae (ATCC 12386) is resuspended and cultured in the appropriate medium overnight (O/N) in aerobic conditions (37° C. with 220 rpm shaking), next day a 1:100 inoculum in Mueller-Hinton broth (MHB) was incubated in aerobic conditions for 3 hr (OD=0.08-0.1) and an inoculum of 1:300 dilution, corresponding to 3×10^5 CFU/ml, was incubated in presence or absence of different concentrations of Triafluocyl in 1% DMSO. After O/N growth the OD of each culture was measured at 600 nm in a spectrophotometer (OD600). The MIC represents the concentration at which there is no visible growth of bacteria, i.e. ΔOD at 600 nm equal to zero (blank is the medium alone). MIC for Triafluocyl against S. agalactiae (ATCC 12386) was 40 μg/ml.

[3] = test system: Staphyloccocus epidermidis (ATCC 35984) biofilm; test: Biofilm formation (crystal violet, 24-well plate); assay type: cell-based, Staphylococcus epidermidis; conditions: 38 μM; 20 hours; FIG. 10B
Method: Staphyloccocus aureus (ATCC 25904) or Staphyloccocus epidermidis (ATCC 35984) were grown overnight in TSB medium, before being diluted 100 fold in fresh TSB, and incubated aerobically at 37° C. until bacteria culture reached an OD600 of 0.6 (corresponding to approximately 1-3×10^8 CFU/ml). Bacteria cultures were then diluted to 1×10^4 CFU/ml in fresh TSB. Aliquots of 800 μl diluted bacteria suspensions were distributed in each well of a 24-well plate. Bacteria were allowed to adhere for 4 hours under static conditions at 37° C. After removing the media, wells were rinsed 2 times with PBS to eliminate planktonic bacteria and re-filled with TSB supplemented with 0.5% glucose containing Fluometacyl at desired concentration or DMSO alone (Ctrl). The 24-well plates were incubated at 37° C. for 20 hours. Wells were then washed and stained with 0.5% (w/v) crystal violet for 30 minutes and rinsed with PBS 4 times. The dye was solubilized by adding 20% acetic acid (v/v in water) before reading absorbance at 595 nm. FIG. 10A and FIG. 10B show Fluometacyl effect on S. aureus and S. epidermidis biofilm formation respectively at all concentrations tested.

With `CCCSc1nc(N[C@@H]2C[C@H]2c2ccc(F)c(F)c2)c2nnn([C@@H]3C[C@H](OCCO)[C@@H](O)[C@H]3O)c2n1` [Triafluocyl, (1S,2S,3R,5S)-3-[7-[(1R,2S)-2-(3,4-difluorophenyl)cyclopropylamino]-5-(propylthio)-3H-[1,2,3]-triazolo[4,5-d]pyrimidin-3-yl]-5-(2-hydroxyethoxy)-1,2-cyclopentanediol] the “MDK 99.9 Time (h) needed to kill 99.9% of the started inoculum” value (S. aureus ATCC 6538) was 6 h, the MBC (S. aureus ATCC 6538; Staphylococcus aureus, ATCC6538, cut-off 99.9% reduction in CFU) was 20 µg/mL (≈ 38.3 µM) and the “S. epidermidis growth (OD600)” value (S. epidermidis; 50 μg/ml) was “slight bacteriostatic activity”. The “number of viable cells” value (S. epidermidis; 50 μg/ml, at 80 min) was 3×10^8 CFU/ml, the “S. epidermidis growth (OD600)” value (S. epidermidis; between 10 μg/ml and 20 μg/ml, compared to DMSO (0.25%), 100 min) was “dose-dependent inhibition” and the “E. faecalis biofilm formation” value ([1]; 40 μg/ml, polystyrene surface) was “no biofilm could form”. The “E. faecalis biofilm formation” value ([1]; starting concentration of 10 μg/ml, versus DMSO) was “significantly reduces” and the MIC [2] was 40 µg/mL (≈ 76.5 µM).
With `CCCSc1nc(N[C@@H]2C[C@H]2c2ccc(F)c(F)c2)c2nnn([C@@H]3C[C@H](O)[C@@H](O)[C@H]3O)c2n1` [Fluometacyl, (1S,2R,3S,4R)-4-[7-[[(1R,2S)-2-(3,4-Difluorophenyl)cyclopropyl]amino]-5-(propylthio)-3H-1,2,3-triazolo[4,5-d]pyrimidin-3-yl]-1,2,3-cyclopentanetriol] the “S. epidermidis biofilm formation” value [3] was “could not form any biofilm”.
